Starred links: 1 amine or outer side, 2 acyl side, 3 side chain; linkers in the order of their positions; H or OH if unused. Positions of bridges follow the written chain, without caps; N, C: chain ends. Residues, ends and D or L forms follow the SMILES beside them. X1 = O=C([C@H](O)CS[*:2])[*:1]
Key:
[1] = Retardation factor, Rf value of the compound in butan-1-ol-acetic acid-water-ethyl acetate (1:1:1:1 v/v) solvent system; format: physicochemical; conditions: buffer
[2] = Oxytocic potency in rat by uterus assay; format: functional
[3] = Retardation factor, Rf value of the compound in butan-1-ol-water (3.5% in acetic acid, 1.5% in pyridine) (1:1 v/v,upper phase) solvent system; format: physicochemical; conditions: buffer
[4] = Oxytocic potency in rat by uterus assay in presence of 0.5 mM Mg2+; format: functional
[5] = Retardation factor, Rf value of the compound in butan-1-ol-acetic acid-water-pyridine (15:3:3:10v/v) solvent system; format: physicochemical; conditions: buffer
[6] = Retardation factor, Rf value of the compound in butan-1-ol-acetic acid-water (4:1:5 v/v, upper phase) solvent system; format: physicochemical; conditions: buffer
Rattus norvegicus [7] = organism: Rattus norvegicus; assay: Oxytocic potency in rat assessed as milk ejection; format: functional
Rattus norvegicus [8] = assay: Antidiuretic activity in iv dosed rat; format: ADME, organism-based, Urine; conditions: in vivo
Rattus norvegicus [9] = organism: Rattus norvegicus; assay: Ratio of oxytocic potency to antidiuretic activity in rat; design: species or system Urine
[10] = Oxytocic potency in rat by mammary strip assay; format: functional
Rattus norvegicus [11] = organism: Rattus norvegicus; assay: Vasopressor activity in rat; format: ADME, organism-based; conditions: in vivo
Oryctolagus cuniculus = organism: Oryctolagus cuniculus; assay: Oxytocic potency in rabbit assessed as milk ejection; format: functional

Row | Structure (SMILES) | Rf [1] | Rf [3] | Rf [5] | Rf [6] | Activity (Rattus norvegicus [8]) | Activity (Rattus norvegicus [11]) | Activity [2] | Activity [4] | Activity (Rattus norvegicus [7]) | Ratio (Rattus norvegicus [9]) | Activity [10] | Activity (Oryctolagus cuniculus)
1 | CC[C@H](C)[C@@H]1NC(=O)[C@H](Cc2ccc(O)cc2)NC(=O)[C@@H](N)CSSC[C@@H](C(=O)NCC(=O)N[C@@H](CC(C)C)C(=O)NCC(N)=O)NC(=O)[C@H](CC(N)=O)NC(=O)[C@H](CCC(N)=O)NC1=O (H-CYIQNCGLG-NH2; disulfide 1-6) | 0.74 | 0.17 | 0.75 | 0.3 | 0.0056 U/mg | < 0.01 U/mg | 65 U/mg | 965 U/mg | 392 U/mg | 16600 | 478 U/mg | –
2 | CC[C@H](C)[C@@H]1NC(=O)[C@H](Cc2ccc(O)cc2)NC(=O)[C@@H](N)CSSC[C@@H](C(=O)NCC(=O)N[C@@H](CC(C)C)C(=O)NCC(N)=O)NC(=O)[C@H](CC(N)=O)NC(=O)[C@H]([C@@H](C)O)NC1=O (H-CYITNCGLG-NH2; disulfide 1-6) | 0.85 | 0.27 | 0.83 | 0.37 | 0.002 U/mg | < 0.01 U/mg | 166 U/mg | 857 U/mg | 802 U/mg | 83000 | 490 U/mg | –
3 | CC[C@H](C)[C@@H]1NC(=O)[C@H](Cc2ccc(O)cc2)NC(=O)[C@H](O)CSSC[C@@H](C(=O)NCC(=O)N[C@@H](CC(C)C)C(=O)NCC(N)=O)NC(=O)[C@H](CC(N)=O)NC(=O)[C@H]([C@@H](C)O)NC1=O (YITNCGLG-NH2; linker N-5 via X1) | 0.89 | 0.52 | 0.88 | 0.56 | 0.004 U/mg | < 0.01 U/mg | 218 U/mg | 1002 U/mg | 950 U/mg | 54500 | 623 U/mg | –
4 | CC[C@H](C)[C@@H]1NC(=O)[C@H](Cc2ccc(O)cc2)NC(=O)[C@@H](N)CSSC[C@@H](C(=O)N2CCC[C@H]2C(=O)N[C@@H](CC(C)C)C(=O)NCC(N)=O)NC(=O)[C@H](CC(N)=O)NC(=O)[C@H](CCC(N)=O)NC1=O [OXYTOCIN] | – | – | – | – | 4 U/mg | – | 520 U/mg | 486 U/mg | – | – | 533 U/mg | 543 U/mg

Now from value to compound, other results behind:

Row | Rf [1] | Rf [3] | Rf [5] | Rf [6] | Activity (Rattus norvegicus [8]) | Activity (Rattus norvegicus [11]) | Structure (SMILES) | Activity [2] | Activity [4] | Activity (Rattus norvegicus [7]) | Ratio (Rattus norvegicus [9]) | Activity [10] | Activity (Oryctolagus cuniculus)
5 | – | – | – | – | 1.8 U/mg | 0.43 U/mg | CC[C@H](C)[C@@H]1NC(=O)[C@H](Cc2ccc(O)cc2)NC(=O)[C@@H](N)CSSC[C@@H](C(=O)N2CCC[C@H]2C(=O)N[C@@H](CC(C)C)C(=O)NCC(N)=O)NC(=O)[C@H](CC(N)=O)NC(=O)[C@H]([C@@H](C)O)NC1=O (H-CYITNCPLG-NH2; disulfide 1-6) | 923 U/mg | 719 U/mg | 543 U/mg | 510 | – | –
6 | – | – | – | – | 5.3 U/mg | 4.92 U/mg | CC[C@H](C)[C@@H]1NC(=O)[C@H](Cc2ccc(O)cc2)NC(=O)[C@H](O)CSSC[C@@H](C(=O)N2CCC[C@H]2C(=O)N[C@@H](CC(C)C)C(=O)NCC(N)=O)NC(=O)[C@H](CC(N)=O)NC(=O)[C@H]([C@@H](C)O)NC1=O (YITNCPLG-NH2; linker N-5 via X1) | 4179 U/mg | 937 U/mg | 808 U/mg | 790 | 378 U/mg | –

Reference: ChEMBL document CHEMBL3244056, “Synthesis and some pharmacological properties of [4-threonine, 7-glycine]oxytocin, [1-(L-2-hydroxy-3-mercaptopropanoic acid), 4-threonine, 7-glycine]oxytocin (hydroxy[Thr4, Gly7]oxytocin), and [7-Glycine]oxytocin, peptides with high oxytocic-antidiuretic selectivity” (J Med Chem, 1977)
